US20130079370A1, “Method for the Inhibition of Deubiquitinating Activity” (priority 2011, published 2013)

Experiments:
[1] = test system: Lewis Lung Carcinoma (LLC) tumors; assay: Syngenic lung carcinoma (LLC) model; format: in vivo, C57BL/6J mice; conditions: 5 mg/kg i.p.
HCT116 cells = format: cell-based; conditions: human
Source text: These findings indicate that high molecular weight ubiquitin substrate complexes accumulating as a result of DUB inhibition can generate strong cytotoxicity that is insensitive to Bcl-2 over-expression. [table]

[2] = test system: HTC-116, hTERT-RPE1 and PBMC; assay: Cytotoxic activity, FMCA method; format: cell-based; conditions: 72 h
Method: For the FMCA assay cells were seeded in the drug-prepared 384-well plates using the pipetting robot Precision 2000 (Bio-Tek Instruments Inc., Winooski, Vt.). The plates were incubated for 72 h and then transferred to an integrated HTS SAIGAN Core System consisting of an ORCA robot (Beckman Coulter) with CO2 incubator (Cytomat 2C, Kendro, Sollentuna, Sweden), dispenser module (Multidrop 384, Titertek, Huntsville, Ala.), washer module (ELx 405, Bio-Tek Instruments Inc), delidding station, plate hotels, barcode reader (Beckman Coulter), liquid handler (Biomek 2000, Beckman Coulter) and a multipurpose reader (FLUOstar Optima, BMG Labtech GmbH, Offenburg, Germany) for automated FMCA. Survival index (SI) is defined as the fluorescence of test wells in percentage of controls with blank values subtracted.
HCT-116 cells were treated with increasing concentrations of b-AP15 for 24 h and the levels of apoptosis were determined by measuring the levels of caspase cleaved cytokeratin-18 (CK18) by ELISA assay (FIG. 6a). HCT-116 cells were treated with increasing concentrations of b-AP15 for 48 h). Cell viability was determined by acid-phosphatase activity assay. […] IC50 was determined from log concentration/effect curves in Graph Pad Prism (GraphPad Software Inc. CA, USA) using non-linear regression analysis (four parameter model with variable Hill slope) (FIGS. 6e, 6f). […]

[3] = test system: HCT-116 Bcl2+ colon carcinoma xenografts; assay: HCT-116 Bcl2+ colon carcinoma xenografts in nude mice, tumor onset; format: in vivo; conditions: 5 mg/kg 4-5 times weekly for 3 weeks; log-rank P=0.0136; vs vehicle
Method: Animal experiments were conducted in full accordance with Swedish governmental statutory regulations on animal welfare under permission from local ethical committees. Animals were housed at a max of five per cage and provided with sterile water and food ad libitum. All mice were monitored and weighed daily. For the head and neck carcinoma model a 100-μl cell suspension containing 1×10^6 FaDu cells was injected subcutaneously into the right rear flank of the animals. After injection, tumor growth was measured daily with calipers and the tumor volume calculated by the formula L×W^2×0.44. When tumors had grown to a size of approximately 200 mm^3 (Day 0) mice were randomized to receive either vehicle (n=10) or b-AP15 5 mg/kg by subcutaneous injection s.c. (n=15) daily. […] Nineteen days after malignant cell injection all of the mice were killed and histopathological manifestations of liver, ovary (target organs for this model of tumor) were evaluated and compared between groups. […]
SCID mice bearing FaDu human tumor xenografts were randomized at tumor take (200 mm^3) and treated by daily subcutaneous injection with either vehicle (n=10) or 5 mg kg^−1 b-AP15 (n=15) for 10 days. […] Mice were treated with vehicle (n=6) or 5 mg kg^−1 b-AP15 (n=6) 4-5 times weekly for 3 weeks and monitored for tumor onset (log-rank, P=0.0136, hazard ratio=7.9). […]

C=CC(=O)N1C/C(=C\c2ccc([N+](=O)[O-])cc2)C(=O)/C(=C/c2ccc([N+](=O)[O-])cc2)C1 [b-AP15, (3E,5E)-3,5-bis[(4-nitrophenyl)methylidene]-1-(prop-2-enoyl)piperidin-4-one]
difference in weight at the start and the endpoint between control and treated animals [1]: +2.1%
Fold induction DNAJB1 (Hsp40B1) (HCT116 cells): 22 fold
Fold induction HSPA1B (HCT116 cells): 21 fold
cytotoxic activity, tumor versus normal cell types [2]: more toxic to the colon carcinoma cell line HTC-116 than to immortalized retinal pigment epithelial cells (hTERT-RPE1) and peripheral blood mononuclear cells (PBMC)
hazard ratio, disease free survival [3]: 7.9
